Reference: the supplement of paper PMC10307832

How the values were obtained:
Assay in all cases: relative viability (nuclei count vs DMSO), 5 days (fraction); higher = more cells survive
[1] = compound: COc1cc(N2CCC(N3CCN(C)CC3)CC2)ccc1Nc1ncc(Cl)c(Nc2ccccc2S(=O)(=O)C(C)C)n1 [NVP-TAE684] + O=C(CCCCCCC(=O)Nc1ccccc1)NO [Vorinostat] (partner 1 µM)
Method in brief: (§1)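 Lung cancer cell lines were seeded in 1536-well plates and dosed by pin tool the next day, with either a single drug or a fixed anchor-drug dose combined with five library-drug doses (not always all listed) spaced in √10 steps. Five days later, one step fixed the cells and stained their nuclei (final 0.05% Triton X-100, 1% formaldehyde, 1 ug/ml Hoechst), and nuclei were counted on 4× images. Relative viability is the nuclei count in treated wells divided by the count in vehicle wells, and each value is the median of duplicate plates.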

[2] = compound: C#Cc1cccc(Nc2ncnc3cc(OC)c(OCCCCCCC(=O)NO)cc23)c1 [CUDC-101] + O=C(c1cc(Cc2n[nH]c(=O)c3ccccc23)ccc1F)N1CCN(C(=O)C2CC2)CC1 [Olaparib] (partner 8 µM)
Method in brief: as §1

[3] = compound: COc1cc(N2CCC(N3CCN(C)CC3)CC2)ccc1Nc1ncc(Cl)c(Nc2ccccc2S(=O)(=O)C(C)C)n1 [NVP-TAE684] + CC1(C)CCC(c2ccc(Cl)cc2)=C(CN2CCN(c3ccc(C(=O)NS(=O)(=O)c4ccc(N[C@H](CCN5CCOCC5)CSc5ccccc5)c(S(=O)(=O)C(F)(F)F)c4)cc3)CC2)C1 [Navitoclax] (partner 0.5 µM)
Method in brief: as §1

[4] = compound: COc1cc(N2CCC(N3CCN(C)CC3)CC2)ccc1Nc1ncc(Cl)c(Nc2ccccc2S(=O)(=O)C(C)C)n1 [NVP-TAE684] + CC(C)C[C@H](NC(=O)[C@H](Cc1ccccc1)NC(=O)c1cnccn1)B(O)O [Bortezomib] (partner 0.002 µM)
Method in brief: as §1

[5] = compound: C#Cc1cccc(Nc2ncnc3cc(OC)c(OCCCCCCC(=O)NO)cc23)c1 [CUDC-101] + CS(=O)(=O)CCNCc1ccc(-c2ccc3ncnc(Nc4ccc(OCc5cccc(F)c5)c(Cl)c4)c3c2)o1 [Lapatinib] (partner 2 µM)
Method in brief: as §1

## 201T
[1]; first compound 0.2 µM
  relative viability: 1.02
[1]; first compound 0.6325 µM
  relative viability: 1
[1]; first compound 2 µM
  relative viability: 0.831
[2]; first compound 0.01 µM
  relative viability: 0.867
[2]; first compound 0.03162 µM
  relative viability: 0.817
[2]; first compound 0.1 µM
  relative viability: 0.806
[2]; first compound 0.3162 µM
  relative viability: 0.8
[2]; first compound 1 µM
  relative viability: 0.793
[3]; first compound 0.2 µM
  relative viability: 1.21
[3]; first compound 0.6325 µM
  relative viability: 1.19
[3]; first compound 2 µM
  relative viability: 1.12
[4]; first compound 0.2 µM
  relative viability: 1.11
[4]; first compound 0.6325 µM
  relative viability: 1.01
[4]; first compound 2 µM
  relative viability: 1.11
[5]; first compound 0.01 µM
  relative viability: 1.03
[5]; first compound 0.03162 µM
  relative viability: 1.02
[5]; first compound 0.1 µM
  relative viability: 0.943
[5]; first compound 0.3162 µM
  relative viability: 1.08
[5]; first compound 1 µM
  relative viability: 0.872

## A549
[2]; first compound 0.01 µM
  relative viability: 0.415
[2]; first compound 0.03162 µM
  relative viability: 0.24
[2]; first compound 0.1 µM
  relative viability: 0.355
[2]; first compound 0.3162 µM
  relative viability: 0.417
[2]; first compound 1 µM
  relative viability: 0.286
[3]; first compound 0.2 µM
  relative viability: 1.38
[3]; first compound 2 µM
  relative viability: 0.263
[5]; first compound 0.01 µM
  relative viability: 0.975
[5]; first compound 0.03162 µM
  relative viability: 1.01
[5]; first compound 0.1 µM
  relative viability: 0.946
[5]; first compound 0.3162 µM
  relative viability: 0.821
[5]; first compound 1 µM
  relative viability: 0.386

## A-427
[1]; first compound 0.2 µM
  relative viability: 0.908
[1]; first compound 0.6325 µM
  relative viability: 0.848
[1]; first compound 2 µM
  relative viability: 0.738
[2]; first compound 0.01 µM
  relative viability: 0.711
[2]; first compound 0.03162 µM
  relative viability: 0.671
[2]; first compound 0.1 µM
  relative viability: 0.722
[2]; first compound 0.3162 µM
  relative viability: 0.694
[2]; first compound 1 µM
  relative viability: 0.607
[3]; first compound 0.2 µM
  relative viability: 0.992
[3]; first compound 2 µM
  relative viability: 0.874
[4]; first compound 0.2 µM
  relative viability: 1.1
[4]; first compound 2 µM
  relative viability: 0.78
[5]; first compound 0.01 µM
  relative viability: 0.933
[5]; first compound 0.03162 µM
  relative viability: 1.04
[5]; first compound 0.1 µM
  relative viability: 1
[5]; first compound 0.3162 µM
  relative viability: 0.914
[5]; first compound 1 µM
  relative viability: 1.01

## ABC-1
[1]; first compound 0.6325 µM
  relative viability: 1.01
[1]; first compound 2 µM
  relative viability: 0.527
[2]; first compound 0.01 µM
  relative viability: 0.908
[2]; first compound 0.03162 µM
  relative viability: 0.767
[2]; first compound 0.1 µM
  relative viability: 1.14
[2]; first compound 0.3162 µM
  relative viability: 0.922
[2]; first compound 1 µM
  relative viability: 0.424
[4]; first compound 0.2 µM
  relative viability: 0.223
[4]; first compound 0.6325 µM
  relative viability: 0.256
[4]; first compound 2 µM
  relative viability: 0.169
[5]; first compound 0.01 µM
  relative viability: 1.06
[5]; first compound 0.03162 µM
  relative viability: 1.05
[5]; first compound 0.1 µM
  relative viability: 1.21
[5]; first compound 1 µM
  relative viability: 1.26

## BEN
[1]; first compound 0.2 µM
  relative viability: 0.547
[1]; first compound 0.6325 µM
  relative viability: 0.524
[1]; first compound 2 µM
  relative viability: 0.419
[2]; first compound 0.01 µM
  relative viability: 0.91
[2]; first compound 0.03162 µM
  relative viability: 0.853
[2]; first compound 0.1 µM
  relative viability: 1.11
[2]; first compound 0.3162 µM
  relative viability: 0.785
[2]; first compound 1 µM
  relative viability: 0.691
[3]; first compound 0.2 µM
  relative viability: 0.188
[3]; first compound 0.6325 µM
  relative viability: 0.0569
[3]; first compound 2 µM
  relative viability: 0.0697
[4]; first compound 0.2 µM
  relative viability: 0.784
[4]; first compound 0.6325 µM
  relative viability: 0.817
[4]; first compound 2 µM
  relative viability: 0.679
[5]; first compound 0.01 µM
  relative viability: 0.925
[5]; first compound 0.03162 µM
  relative viability: 0.628
[5]; first compound 0.1 µM
  relative viability: 0.707
[5]; first compound 0.3162 µM
  relative viability: 0.739
[5]; first compound 1 µM
  relative viability: 0.539

## CAL-12T
[1]; first compound 0.2 µM
  relative viability: 0.786
[1]; first compound 0.6325 µM
  relative viability: 0.615
[1]; first compound 2 µM
  relative viability: 0.245
[2]; first compound 0.01 µM
  relative viability: 0.734
[2]; first compound 0.03162 µM
  relative viability: 0.681
[2]; first compound 0.1 µM
  relative viability: 0.752
[2]; first compound 0.3162 µM
  relative viability: 0.772
[2]; first compound 1 µM
  relative viability: 0.668
[3]; first compound 0.2 µM
  relative viability: 1.35
[3]; first compound 0.6325 µM
  relative viability: 1.18
[3]; first compound 2 µM
  relative viability: 0.407
[4]; first compound 0.2 µM
  relative viability: 0.974
[4]; first compound 0.6325 µM
  relative viability: 0.645
[4]; first compound 2 µM
  relative viability: 0.366
[5]; first compound 0.01 µM
  relative viability: 0.796
[5]; first compound 0.03162 µM
  relative viability: 0.603
[5]; first compound 0.1 µM
  relative viability: 0.763
[5]; first compound 0.3162 µM
  relative viability: 0.64
[5]; first compound 1 µM
  relative viability: 0.567

## COR-L23
[1]; first compound 0.2 µM
  relative viability: 0.413
[1]; first compound 0.6325 µM
  relative viability: 0.397
[1]; first compound 2 µM
  relative viability: 0.101
[2]; first compound 0.01 µM
  relative viability: 0.402
[2]; first compound 0.03162 µM
  relative viability: 0.374
[2]; first compound 0.1 µM
  relative viability: 0.331
[2]; first compound 0.3162 µM
  relative viability: 0.266
[2]; first compound 1 µM
  relative viability: 0.294
[3]; first compound 0.2 µM
  relative viability: 1.12
[3]; first compound 0.6325 µM
  relative viability: 0.943
[3]; first compound 2 µM
  relative viability: 0.544
[4]; first compound 0.6325 µM
  relative viability: 1.04
[4]; first compound 2 µM
  relative viability: 0.616
[5]; first compound 0.01 µM
  relative viability: 1.02
[5]; first compound 0.03162 µM
  relative viability: 1.02
[5]; first compound 0.1 µM
  relative viability: 0.889
[5]; first compound 0.3162 µM
  relative viability: 1.1
[5]; first compound 1 µM
  relative viability: 0.449

## COR-L 105
[1]; first compound 0.6325 µM
  relative viability: 0.78
[1]; first compound 2 µM
  relative viability: 0.509
[2]; first compound 0.01 µM
  relative viability: 0.703
[2]; first compound 0.03162 µM
  relative viability: 0.74
[2]; first compound 0.1 µM
  relative viability: 0.759
[2]; first compound 0.3162 µM
  relative viability: 0.697
[2]; first compound 1 µM
  relative viability: 0.77
[3]; first compound 0.2 µM
  relative viability: 0.717
[3]; first compound 0.6325 µM
  relative viability: 0.74
[3]; first compound 2 µM
  relative viability: 0.593
[4]; first compound 0.2 µM
  relative viability: 0.903
[4]; first compound 0.6325 µM
  relative viability: 0.556
[4]; first compound 2 µM
  relative viability: 0.309
[5]; first compound 0.01 µM
  relative viability: 0.425
[5]; first compound 0.03162 µM
  relative viability: 0.356
[5]; first compound 0.1 µM
  relative viability: 0.316
[5]; first compound 0.3162 µM
  relative viability: 0.264
[5]; first compound 1 µM
  relative viability: 0.226

## Calu-6
[2]; first compound 0.01 µM
  relative viability: 0.545
[2]; first compound 0.03162 µM
  relative viability: 0.503
[2]; first compound 0.1 µM
  relative viability: 0.522
[2]; first compound 0.3162 µM
  relative viability: 0.484
[2]; first compound 1 µM
  relative viability: 0.332
[3]; first compound 0.2 µM
  relative viability: 0.776
[3]; first compound 0.6325 µM
  relative viability: 0.694
[3]; first compound 2 µM
  relative viability: 0.269
[4]; first compound 0.2 µM
  relative viability: 0.875
[4]; first compound 0.6325 µM
  relative viability: 0.918
[4]; first compound 2 µM
  relative viability: 0.435
[5]; first compound 0.01 µM
  relative viability: 1.08
[5]; first compound 0.03162 µM
  relative viability: 1.12
[5]; first compound 0.1 µM
  relative viability: 1.09
[5]; first compound 0.3162 µM
  relative viability: 0.791
[5]; first compound 1 µM
  relative viability: 0.658
